How the values were obtained:
[1] = test system: antiserum raised to immunogen C (hapten C-BSA), IgG fraction; assay: Competitive ELISA microtiter plate assay for ketamine and norketamine (conjugate A, hapten A-HRP, as detection reagent); format: binding, sheep; details: for IC50, CR = concentration of potential cross-reactant that causes 50% displacement of signal: potential cross-reactants, standards 0-500 ng/ml
Method: An aqueous solution of the immunogen prepared in Example 10 was formulated with Freund's Complete Adjuvant (FCA) to form an emulsion consisting of 4 mg/ml immunogen in 50% (v/v) FCA. Three sheep were immunised with this emulsion (1° immunisation), 0.25 ml being subcutaneously injected at each of four sites in the flank of each animal. The next immunisation (boost 1) contained 2 mg/ml immunogen and subsequent immunizations (boosts 2 to 11) contained 1 mg/ml immunogen. All boosts were emulsified in 50% (v/v) Freund's Incomplete Adjuvant (FIA) and were administered in the same manner as the 1° immunisation, at monthly intervals for 1 year. Blood sampling took place 7 to 14 days after each boost. Each sample was processed to produce antiserum, which was further purified by caprylic acid and ammonium sulfate precipitation to yield an immunoglobulin G (IgG) fraction. The IgG fraction was evaluated by competitive ELISA microtiter plate assay, as described in Example 16 below.
The wells of an enhanced binding 96 well polystyrene microtiter plate were coated with the IgG fraction of the antiserum raised to immunogen C (hapten C-BSA) (Example 10), diluted in 10 mM Tris, pH 8.5 (125 μl/well). The appropriate antibody coating dilution was determined using standard ELISA checkerboard techniques. The plate was incubated for 2 hours at 37° C., washed 4 times with Tris buffered saline containing Tween 20 (TBST) and tapped dry. Standard solutions of ketamine and norketamine were prepared in TBST at 0, 0.1, 0.5, 1, 5, 25, 100 and 500 ng/ml and 50 μl of each was added to the appropriate wells (FIG. 4). 75 μl of conjugate A (hapten A-HRP) (Example 11), diluted in Tris buffer (pH 7.2) containing EDTA, D-mannitol, sucrose, thimerosal and BSA, was added to each of the wells, as shown in FIG. 4. The appropriate dilution of conjugate was also determined using standard ELISA checkerboard techniques. The plate was incubated at 37° C. for 2 hours. Excess unbound conjugate was removed by washing 6 times over a 10 minute period with TBST.
125 μl of tetramethylbenzidine (TMB) substrate solution was added to each well of the plate that was then incubated for 15 to 20 minutes in the dark at room temperature. The reaction was terminated by addition of 125 μl 0.2M H2SO4 to each well. The absorbance was then measured at 450 nm using a microtiter plate reader.
In order to determine the specificity of the competitive ELISA for ketamine and norketamine, standard solutions were prepared in TBST at 0, 0.1, 0.5, 1, 5, 25, 100 and 500 ng/ml. Employing each series of standards in the ketamine competitive ELISA, calibration curves were generated and these were used to determine the cross-reactivity of the immunoassay with these substances. The results of this study are presented in Table 2, cross-reactivity of potential cross-reactants phencyclidine and dextromethorphan being calculated according to the following formula: % CR=IC50, Ketamine/IC50, CR×100
Where %CR is the percentage cross-reactivity, IC50, Ketamine is the concentration of ketamine that causes 50% displacement of signal and IC50, CR is the concentration of potential cross-reactant that causes 50% displacement of signal.

[2] = test system: Neogen kit antibodies developed against a ketamine hapten; details: Neogen ELISA kit; cited from earlier work
[3] = test system: antibodies to phenylcyclohexylamine derivative immunogens; details: Abbott immunoassay, Table 3(c) at page 18; cited from earlier work
[4] = test system: antibodies to PCP and other arylcyclohexylamines; details: as indicated by high IC50 values, Table 1, page 667 of Owens et al; cited from earlier work
[5] = test system: antibodies against five epitopes of phencyclidine (PCP)-like molecules; details: antibodies to PCP-like haptens conjugated to BSA; Table 2, page 475 of Owens et al; cited from earlier work
[6] = % CR=IC50, Ketamine/IC50, CR×100
[7] = antiserum to immunogen C, conjugate A
[8] = standard concentration 0.1 ng/ml
[9] = standard concentration 0.5 ng/ml
[10] = standard concentration 25 ng/ml
[11] = standard concentration 100 ng/ml
[12] = standard concentration 500 ng/ml

Structure (SMILES) | % CR = percentage cross-reactivity based on specificity to ketamine [1, 6] [%] | IC50, CR = concentration of potential cross-reactant that causes 50% displacement of signal [1] [µg/mL] | cross-reactivity [2] [%] | % CR = percentage cross-reactivity based on specificity to ketamine [1, 7] [%] | IC50 = standard concentration which produces 50% B/B0 [1, 7] [µg/mL] | % B/B0 [1, 8] [%] | % B/B0 [1, 9] [%] | % B/B0 ([1]; standard concentration 1 ng/ml) [%] | % B/B0 ([1]; standard concentration 5 ng/ml) [%] | % B/B0 [1, 10] [%] | % B/B0 [1, 11] [%] | % B/B0 [1, 12] [%] | cross-reactivity [3] | cross-reactivity [4] | cross-reactivity [5] [%]
COc1ccc2c(c1)[C@]13CCCC[C@@H]1[C@H](C2)N(C)CC3 [Dextromethorphan] | <0.58 | >0.5 |  |  |  |  |  |  |  |  |  |  |  |  | 
c1ccc(C2(N3CCCCC3)CCCCC2)cc1 [Phencyclidine] | <0.58 | >0.5 |  |  |  |  |  |  |  |  |  |  |  |  | 
NC1(c2ccccc2Cl)CCCCC1=O (stereo not drawn) [Norketamine, [2-amino-2-(o-chlorophenyl)]cyclohexanone] |  |  | 4.6 | 138.1 | 0.0021 | 86.9 | 66.8 | 64.5 | 45.3 | 22.7 | 15.1 | 10.5 |  |  | 
CNC1(c2ccccc2Cl)CCCCC1=O (racemic) [Ketamine, (±)-2-(o-chlorophenyl)-2-(methylamino) cyclohexanone] |  |  | 100 | 100.0 | 0.0029 | 92.1 | 82.8 | 67.9 | 42.6 | 25.0 | 18.4 | 11.6 | does not cross-react significantly | low levels of cross-reactivity | < 0.6
